Experimental data: PubChem BioAssay AID1963980 (Molecular Pharmacology Branch, DTP, NCI, 2024)

System: 475296-252-R-J1-PDC spheroid viability
Experiment: Anticancer human tumor 475296-252-R-J1-PDC patient-derived rectal carcinoma cell line growth inhibition [PI3K]
Conditions: spheroids with HUVEC and MSC; for viability, T/C: stronger effect = lower value
In short: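 Complex 3D spheroids (cancer cells + endothelial HUVEC + mesenchymal stem cells); drug pairs of targeted agent x inavolisib/alpelisib/duvelisib/copanlisib; half-log series from ~Cmax, max 10 microM if Cmax unknown; endpoint viability.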

[1] = curve of first compound, second compound 0.0316 µM
[2] = curve of first compound, second compound 0.1 µM
[3] = curve of first compound, second compound 0.316 µM
[4] = curve of first compound, second compound 1 µM
[5] = second compound 0.0316 µM, first compound 0.0316 µM
[6] = second compound 0.0316 µM, first compound 0.1 µM
[7] = second compound 0.1 µM, first compound 0.0316 µM
[8] = second compound 0.1 µM, first compound 0.1 µM
[9] = second compound 0.316 µM, first compound 0.0316 µM
[10] = second compound 0.316 µM, first compound 0.1 µM
[11] = second compound 1 µM, first compound 0.0316 µM
[12] = second compound 1 µM, first compound 0.1 µM
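Also: spheroids exposed to agents for seven days before readout.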

Work on `CC(=O)c1c(C)c2cnc(Nc3ccc(N4CCNCC4)cn3)nc2n(C2CCCC2)c1=O` + COc1c(OCCCN2CCOCC2)ccc2c3n(c(=NC(=O)c4cnc(N)nc4)nc12)CCN3 yielded an IC50 (curve of first compound, second compound 0.00316 µM) greater than 0.1 µM, an IC50 (curve of first compound, second compound 0.01 µM) greater than 0.1 µM and an IC50 [1] greater than 0.1 µM. The IC50 [2] was greater than 0.1 µM, the IC50 [3] was greater than 0.1 µM and the IC50 [4] was greater than 0.1 µM. It also gave a viability, T/C (second compound 0.00316 µM, first compound 0.000316 µM) of 108%, a viability, T/C (second compound 0.00316 µM, first compound 0.001 µM) of 101% and a viability, T/C (second compound 0.00316 µM, first compound 0.00316 µM) of 104%. The viability, T/C (second compound 0.00316 µM, first compound 0.01 µM) was 119%, the viability, T/C (second compound 0.00316 µM, first compound 0.0316 µM) was 113% and the viability, T/C (second compound 0.00316 µM, first compound 0.1 µM) was 108%. For the same compound, the viability, T/C (second compound 0.01 µM, first compound 0.000316 µM) was 97.4%, the viability, T/C (second compound 0.01 µM, first compound 0.001 µM) was 99.5% and the viability, T/C (second compound 0.01 µM, first compound 0.00316 µM) was 95.9%. It also gave a viability, T/C (second compound 0.01 µM, first compound 0.01 µM) of 99.5%, a viability, T/C (second compound 0.01 µM, first compound 0.0316 µM) of 98.5% and a viability, T/C (second compound 0.01 µM, first compound 0.1 µM) of 99.8%. The viability, T/C (second compound 0.0316 µM, first compound 0.000316 µM) was 96.2%, the viability, T/C (second compound 0.0316 µM, first compound 0.001 µM) was 86% and the viability, T/C (second compound 0.0316 µM, first compound 0.00316 µM) was 90.5%. It also gave a viability, T/C (second compound 0.0316 µM, first compound 0.01 µM) of 98.7%, a viability, T/C [5] of 105% and a viability, T/C [6] of 99.8%. It also gave a viability, T/C (second compound 0.1 µM, first compound 0.000316 µM) of 77.8%, a viability, T/C (second compound 0.1 µM, first compound 0.001 µM) of 82.3% and a viability, T/C (second compound 0.1 µM, first compound 0.00316 µM) of 97.6%. It also gave a viability, T/C (second compound 0.1 µM, first compound 0.01 µM) of 77.8%, a viability, T/C [7] of 83.9% and a viability, T/C [8] of 84.1%. It also gave a viability, T/C (second compound 0.316 µM, first compound 0.000316 µM) of 71.6%, a viability, T/C (second compound 0.316 µM, first compound 0.001 µM) of 75.5% and a viability, T/C (second compound 0.316 µM, first compound 0.00316 µM) of 70.7%. It also gave a viability, T/C (second compound 0.316 µM, first compound 0.01 µM) of 72.6%, a viability, T/C [9] of 82.8% and a viability, T/C [10] of 84.6%. For the same compound, the viability, T/C (second compound 1 µM, first compound 0.000316 µM) was 60.7%, the viability, T/C (second compound 1 µM, first compound 0.001 µM) was 56.7% and the viability, T/C (second compound 1 µM, first compound 0.00316 µM) was 69.3%. For the same compound, the viability, T/C (second compound 1 µM, first compound 0.01 µM) was 61.5%, the viability, T/C [11] was 59.7% and the viability, T/C [12] was 52.4%.

Work on `CC1(C)CCC(Nc2ncc(C(F)(F)F)c(-c3c[nH]c4c(P(C)(C)=O)c(C#N)ccc34)n2)CN1` (stereo unspecified) + Cc1nc(NC(=O)N2CCCC2C(N)=O)sc1-c1ccnc(C(C)(C)C(F)(F)F)c1 yielded an IC50 [1] greater than 10 µM, an IC50 [2] greater than 10 µM and an IC50 [3] greater than 10 µM. The IC50 [4] was greater than 10 µM, the IC50 (curve of first compound, second compound 3.16 µM) was greater than 10 µM and the IC50 (curve of first compound, second compound 10 µM) was greater than 10 µM. For the same compound, the viability, T/C [5] was 89.6%, the viability, T/C [6] was 90.4% and the viability, T/C (second compound 0.0316 µM, first compound 0.316 µM) was 119%. The viability, T/C (second compound 0.0316 µM, first compound 1 µM) was 139%, the viability, T/C (second compound 0.0316 µM, first compound 3.16 µM) was 178% and the viability, T/C (second compound 0.0316 µM, first compound 10 µM) was 82.4%. The viability, T/C [7] was 97.2%, the viability, T/C [8] was 96.4% and the viability, T/C (second compound 0.1 µM, first compound 0.316 µM) was 106%. For the same compound, the viability, T/C (second compound 0.1 µM, first compound 1 µM) was 142%, the viability, T/C (second compound 0.1 µM, first compound 3.16 µM) was 176% and the viability, T/C (second compound 0.1 µM, first compound 10 µM) was 91.7%. The viability, T/C [9] was 95.2%, the viability, T/C [10] was 104% and the viability, T/C (second compound 0.316 µM, first compound 0.316 µM) was 97.3%. The viability, T/C (second compound 0.316 µM, first compound 1 µM) was 129%, the viability, T/C (second compound 0.316 µM, first compound 3.16 µM) was 193% and the viability, T/C (second compound 0.316 µM, first compound 10 µM) was 83.2%. The viability, T/C [11] was 100%, the viability, T/C [12] was 111% and the viability, T/C (second compound 1 µM, first compound 0.316 µM) was 110%. The viability, T/C (second compound 1 µM, first compound 1 µM) was 143%, the viability, T/C (second compound 1 µM, first compound 3.16 µM) was 165% and the viability, T/C (second compound 1 µM, first compound 10 µM) was 81.5%. It also gave a viability, T/C (second compound 3.16 µM, first compound 0.0316 µM) of 99.3%, a viability, T/C (second compound 3.16 µM, first compound 0.1 µM) of 106% and a viability, T/C (second compound 3.16 µM, first compound 0.316 µM) of 109%. For the same compound, the viability, T/C (second compound 3.16 µM, first compound 1 µM) was 121%, the viability, T/C (second compound 3.16 µM, first compound 3.16 µM) was 139% and the viability, T/C (second compound 3.16 µM, first compound 10 µM) was 72.9%. For the same compound, the viability, T/C (second compound 10 µM, first compound 0.0316 µM) was 104%, the viability, T/C (second compound 10 µM, first compound 0.1 µM) was 97.1% and the viability, T/C (second compound 10 µM, first compound 0.316 µM) was 94%. The viability, T/C (second compound 10 µM, first compound 1 µM) was 107%, the viability, T/C (second compound 10 µM, first compound 3.16 µM) was 121% and the viability, T/C (second compound 10 µM, first compound 10 µM) was 62.9%.

In the case of `CCCS(=O)(=O)Nc1ccc(F)c(C(=O)c2c[nH]c3ncc(-c4ccc(Cl)cc4)cc23)c1F`, the viability, T/C (compound 0.0316 µM) is reported as 101% [middle of 4 runs], the viability, T/C (compound 0.1 µM) is reported as 95% [middle of 4 runs] and the viability, T/C (compound 0.316 µM) is reported as 96.8% [middle of 4 runs]. For the same compound, the viability, T/C (compound 1 µM) was 90.3% [middle of 4 runs], the viability, T/C (compound 3.16 µM) was 98.2% [middle of 4 runs] and the viability, T/C (compound 10 µM) was 95.3% [middle of 4 runs]. For the same compound, the IC50 (curve of compound) was greater than 10 µM.
